Our source for the pest or weed control values is patent US8754242B2, “Herbicides” (Syngenta Crop Protection LLC, priority 2007, dated 2014).

Common to all, as to assay type: in vivo
Assay [1] relates to Alopecurus myosuroides (ALOMY). The experiment in a line: Test Example 1 pre-emergence herbicidal activity. The note with it: Alopecurus myosuroides, 480 h, rate 250 g/ha, evaluated 20 days later, read-out: Pre-emergence activity ALOMY (100=total damage to plant; 0=no damage to plant). The method, then: (§1) Monocotyledonous and dicotyledonous test plants were sown in standard soil in pots. After cultivation for one day (pre-emergence) or after 10 days cultivation (post-emergence) under controlled conditions in a glasshouse, the plants were sprayed with an aqueous spray solution derived from the formulation of the technical active ingredient in 0.6 ml acetone and 45 ml formulation solution containing 10.6% Emulsogen EL (Registry number 61791-12-6), 42.2% N-methylpyrrolidone, 42.2% dipropylene glycol monomethyl ether (Registry number 34590-94-8) and 0.2% X-77 (Registry number 11097-66-8). The test plants were then grown in a greenhouse under optimum conditions until, 15 days later for post-emergence and 20 days for pre-emergence, the test was evaluated (100=total damage to plant; 0=no damage to plant).
(§2) Alopecurus myosuroides (ALOMY), Avena fatua (AVEFA), Lolium perenne (LOLPE), Setaria faberi (SETFA), Digitaria sanguinalis (DIGSA), Echinochloa crus-galli (ECHCG)

Assay [2] concerns Avena fatua (AVEFA). The experiment in a line: Test Example 1 pre-emergence herbicidal activity. The note with it: Avena fatua, 480 h, rate 250 g/ha, evaluated 20 days later, read-out: Pre-emergence activity AVEFA (100=total damage to plant; 0=no damage to plant). How it is done:
as §1, §2

Assay [3] deals with Digitaria sanguinalis (DIGSA). The experiment in a line: Test Example 1 pre-emergence herbicidal activity. The note with it: Digitaria sanguinalis, 480 h, rate 250 g/ha, evaluated 20 days later, read-out: Pre-emergence activity DIGSA (100=total damage to plant; 0=no damage to plant). How it is done: as §1, §2
Assay [4] has as its system Echinochloa crus-galli (ECHCG). In words: Test Example 1 pre-emergence herbicidal activity. The note with it: Echinochloa crus-galli, 480 h, rate 250 g/ha, evaluated 20 days later, read-out: Pre-emergence activity ECHCG (100=total damage to plant; 0=no damage to plant). How it is done: as §1, §2
Assay [5] has as its system Lolium perenne (LOLPE). In words: Test Example 1 pre-emergence herbicidal activity. Conditions: Lolium perenne, 480 h, rate 250 g/ha, evaluated 20 days later, read-out: Pre-emergence activity LOLPE (100=total damage to plant; 0=no damage to plant). How it is done:
as §1, §2

In assay [6] the test system is Setaria faberi (SETFA). The experiment in a line: Test Example 1 pre-emergence herbicidal activity. Conditions: Setaria faberi, 480 h, rate 250 g/ha, evaluated 20 days later, read-out: Pre-emergence activity SETFA (100=total damage to plant; 0=no damage to plant). How it is done:
as §1, §2

For assay [7], the system named is Alopecurus myosuroides (ALOMY). In words: Test Example 1 post-emergence herbicidal activity. The note with it: 360 h, rate 125 g/ha, evaluated 15 days later, read-out: Post-emergence activity ALOMY (100=total damage to plant; 0=no damage to plant). How it is done: as §1, §2
The subject of assay [8] is Avena fatua (AVEFA). In words: Test Example 1 post-emergence herbicidal activity. Conditions: 360 h, rate 125 g/ha, evaluated 15 days later, read-out: Post-emergence activity AVEFA (100=total damage to plant; 0=no damage to plant). How it is done: as §1, §2
Assay [9] deals with Digitaria sanguinalis (DIGSA). In words: Test Example 1 post-emergence herbicidal activity. Conditions: 360 h, rate 125 g/ha, evaluated 15 days later, read-out: Post-emergence activity DIGSA (100=total damage to plant; 0=no damage to plant). How it is done:
as §1, §2

Assay [10] concerns Echinochloa crus-galli (ECHCG). The experiment in a line: Test Example 1 post-emergence herbicidal activity. Conditions: 360 h, rate 125 g/ha, evaluated 15 days later, read-out: Post-emergence activity ECHCG (100=total damage to plant; 0=no damage to plant). The method, then: as §1, §2
Assay [11] deals with Lolium perenne (LOLPE). The experiment in a line: Test Example 1 post-emergence herbicidal activity. The note with it: 360 h, rate 125 g/ha, evaluated 15 days later, read-out: Post-emergence activity LOLPE (100=total damage to plant; 0=no damage to plant). How it is done:
as §1, §2

Assay [12] has as its system Setaria faberi (SETFA). In words: Test Example 1 post-emergence herbicidal activity. Conditions: 360 h, rate 125 g/ha, evaluated 15 days later, read-out: Post-emergence activity SETFA (100=total damage to plant; 0=no damage to plant). How it is done:
as §1, §2

Structures are written as SMILES.

Regarding `CCOC(=O)C1=NOC2C1[C@@H]1O[C@H]2[C@H]2C(O)=C(c3c(CC)cc(C)cc3CC)C(=O)[C@H]21` (mixture of isomers) [Example T16], the pest or weed control at 250 g/ha in assay [1] worked out at 0%; in the assay with Avena fatua (AVEFA) [2], 10%; in [3], 0%; in assay [4], 0%; in the assay on Lolium perenne (LOLPE) [5] it was 0%; in the assay on Setaria faberi (SETFA) [6], 10%. Further, the pest or weed control at 125 g/ha in assay [7] is 40%; in the assay with Avena fatua (AVEFA) [8], 20%; in [9] it was 0%; in [10], 30%; with Lolium perenne (LOLPE) [11], 50%; with Setaria faberi (SETFA) [12] it was 0%.
`Cc1cc(C)c(C2=C(O)[C@H]3[C@@H](C2=O)[C@@H]2C=C[C@@]3(C(C)O)O2)c(C)c1` (mixture of isomers) [Example T39]: the pest or weed control at 250 g/ha is 10% in assay [1]; 20% in the assay with Avena fatua (AVEFA) [2]; 30% in assay [3]; 30% in [4]; 30% in the assay with Lolium perenne (LOLPE) [5]; 40% in the assay with Setaria faberi (SETFA) [6]. Moreover, the pest or weed control at 125 g/ha in assay [7] worked out at 10%; in the assay with Avena fatua (AVEFA) [8], 20%; in assay [9], 70%; in assay [10], 70%; in the assay with Lolium perenne (LOLPE) [11], 0%; in the assay on Setaria faberi (SETFA) [12] it was 60%.
For the compound `C#CCOC(=O)OC1=C(c2c(C)cc(C)cc2C)C(=O)[C@@H]2[C@H]1[C@H]1CC[C@@H]2O1` (racemic) [Example P3], the pest or weed control at 250 g/ha was 100% in assay [1]; 100% with Avena fatua (AVEFA) [2]; 90% in [3]; 100% in assay [4]; 100% in the assay with Lolium perenne (LOLPE) [5]; 90% in the assay with Setaria faberi (SETFA) [6]. Also, the pest or weed control at 125 g/ha in assay [7] was found to be 100%; in the assay on Avena fatua (AVEFA) [8] it was 90%; in assay [9], 70%; in assay [10], 100%; in the assay on Lolium perenne (LOLPE) [11], 100%; in the assay on Setaria faberi (SETFA) [12], 80%.
Take `Cc1cc(C)c(C2=C(OC(=O)OC(C)C)[C@H]3[C@@H](C2=O)[C@@H]2CC[C@H]3O2)c(C)c1` (racemic) [Example P4]: the pest or weed control at 250 g/ha was found to be 100% in assay [1]; 100% in the assay with Avena fatua (AVEFA) [2]; 90% in [3]; 90% in [4]; 100% with Lolium perenne (LOLPE) [5]; 70% in the assay on Setaria faberi (SETFA) [6]. For the same compound, the pest or weed control at 125 g/ha in [7] came out at 100%; in the assay with Avena fatua (AVEFA) [8], 90%; in assay [9] it was 80%; in assay [10], 100%; in the assay with Lolium perenne (LOLPE) [11], 100%; in the assay with Setaria faberi (SETFA) [12] it was 90%.
As to `Cc1cc(C)c(C2=C(OC(=O)C3CC3)[C@H]3[C@@H](C2=O)[C@@H]2CC[C@H]3O2)c(C)c1` (racemic) [Example P5], the pest or weed control at 250 g/ha in assay [1] worked out at 100%; in the assay on Avena fatua (AVEFA) [2], 100%; in assay [3] it was 100%; in assay [4] it was 90%; in the assay with Lolium perenne (LOLPE) [5], 100%; with Setaria faberi (SETFA) [6], 90%. Also, the pest or weed control at 125 g/ha was determined as 100% in assay [7]; 90% in the assay with Avena fatua (AVEFA) [8]; 60% in assay [9]; 100% in [10]; 100% with Lolium perenne (LOLPE) [11]; 80% with Setaria faberi (SETFA) [12].
On to `CCc1cc(C)cc(CC)c1C1=C(OC(=O)OCC(C)C)[C@H]2[C@@H](C1=O)[C@@H]1CC[C@H]2O1` (racemic) [Example P24], for which the pest or weed control at 250 g/ha came out at 90% in assay [1]; 90% with Avena fatua (AVEFA) [2]; 100% in assay [3]; 100% in assay [4]; 100% in the assay with Lolium perenne (LOLPE) [5]; 100% in the assay on Setaria faberi (SETFA) [6]. In addition, the pest or weed control at 125 g/ha (in assay [7]; in assay [10]; with Setaria faberi (SETFA) [12]) was 100% each time.
As to `Cc1cc(C)c(C2=C(OC(=O)C(C)(C)C)[C@H]3[C@@H](C2=O)[C@@H]2CC[C@H]3O2)c(C)c1` (racemic) [Example P33, (1RS,2SR,6RS,7SR)-5-oxo-4-(2,4,6-trimethylphenyl)-10-oxatricyclo[5.2.1.0^2,6]dec-3-en-3-yl 2,2-dimethylpropionate], the pest or weed control at 250 g/ha amounted to 90% in assay [1]; 70% with Avena fatua (AVEFA) [2]; 80% in [3]; 100% in the assay with Lolium perenne (LOLPE) [5]; 80% in the assay on Setaria faberi (SETFA) [6]. Moreover, the pest or weed control at 125 g/ha in assay [7] came out at 80%; in the assay on Avena fatua (AVEFA) [8], 70%; in [9], 70%; in assay [10] it was 90%; in the assay with Lolium perenne (LOLPE) [11] it was 80%; with Setaria faberi (SETFA) [12], 70%.
Consider `COC[C@]12CC[C@H](O1)[C@@H]1C(=O)C(c3c(C)cc(C)cc3C)=C(OC(=O)C3CC3)[C@@H]12` (single isomer, unassigned) [Example P30], for which the pest or weed control at 250 g/ha in assay [1] stood at 80%; with Avena fatua (AVEFA) [2], 80%; in [3], 80%; in assay [4] it was 90%; in the assay on Lolium perenne (LOLPE) [5], 90%; in the assay on Setaria faberi (SETFA) [6] it was 80%. The pest or weed control at 125 g/ha in assay [7] came out at 80%; in [9], 90%; in [10], 100%; in the assay on Lolium perenne (LOLPE) [11], 70%; in the assay on Setaria faberi (SETFA) [12] it was 80%.
Take `CSC[C@]12CC[C@H](O1)[C@@H]1C(=O)C(c3c(C)cc(C)cc3C)=C(O)[C@@H]12` [Example T53]: the pest or weed control at 250 g/ha is 10% in assay [1]; 20% with Avena fatua (AVEFA) [2]; 10% in assay [3]; 0% in assay [4]; 10% with Lolium perenne (LOLPE) [5]; 10% with Setaria faberi (SETFA) [6].
Turning to `CCc1cc(C)cc(CC)c1C1=C(O)[C@@H]2[C@@H]3O[C@@H](C[C@H]3c3cccc(Cl)c3)[C@@H]2C1=O` [Example T148], the pest or weed control at 250 g/ha in assay [1] was found to be 60%; in the assay on Avena fatua (AVEFA) [2], 50%; in assay [3], 70%; in assay [4] it was 80%; in the assay on Lolium perenne (LOLPE) [5], 70%; in the assay with Setaria faberi (SETFA) [6], 60%.
With `CCc1cc(C)cc(CC)c1C1=C(O)[C@@H]2[C@@H]3O[C@@H](C[C@H]3c3cccc(F)c3C#N)[C@@H]2C1=O` [Example T157], the pest or weed control at 250 g/ha in [1] worked out at 30%; in [3] it was 0%; in assay [4] it was 50%; with Lolium perenne (LOLPE) [5], 70%; in the assay with Setaria faberi (SETFA) [6], 0%. For the same compound, the pest or weed control at 125 g/ha in [7] was 60%; in the assay on Avena fatua (AVEFA) [8], 60%; in assay [9], 60%; in [10], 100%; with Lolium perenne (LOLPE) [11] it was 40%; in the assay on Setaria faberi (SETFA) [12] it was 60%.
